Data from patent publication US8410161B2, “Thioxanthone ring system derivatives” (National Defense Medical Center, priority 2010, dated 2013).

How the values were obtained:
OVCAR-5 = experiment: NCI in vitro DTP human cell line screen, OVCAR-5; assay type: cell-based; conditions: Ovarian Cancer, 1.00E−5 Molar
Protocol: (§1) Then, a cell toxicity assay of the cancer lines made by National Cancer Institute will be discussed as follows. The cell toxicity assay is performed by choosing ten compounds (existing certification numbers) from the 59 compounds disclosed in the present invention first.

CCRF-CEM = experiment: NCI in vitro DTP human cell line screen, CCRF-CEM; assay type: cell-based; conditions: Leukemia, 1.00E−5 Molar
Protocol: as §1

SK-OV-3 = experiment: NCI in vitro DTP human cell line screen, SK-OV-3; assay type: cell-based; conditions: Ovarian Cancer, 1.00E−5 Molar
Protocol: as §1

OVCAR-3 = experiment: NCI in vitro DTP human cell line screen, OVCAR-3; assay type: cell-based; conditions: Ovarian Cancer, 1.00E−5 Molar
Protocol: as §1

K562 = experiment: NCI in vitro DTP human cell line screen, K562; assay type: cell-based; conditions: Leukemia, 1.00E−5 Molar
Protocol: as §1

HS 578-T = experiment: NCI in vitro DTP human cell line screen, HS 578-T; assay type: cell-based; conditions: Breast Cancer, 1.00E−5 Molar
Protocol: as §1

[1] = MTT assay, HEL299 fibroblast; assay type: cell-based; conditions: human
Text: Please refer to FIG. 4C, various cell viabilities of the HEL299 cell lines can be obtained through the MTT assay while the compounds No. 1˜30 are used to treat HEL299 cell lines, wherein HEL299 cell lines are fibroblast.

UACC-62 = experiment: NCI in vitro DTP human cell line screen, UACC-62; assay type: cell-based; conditions: Melanoma, 1.00E−5 Molar
Protocol: as §1

MCF7 = experiment: NCI in vitro DTP human cell line screen, MCF7; assay type: cell-based; conditions: Breast Cancer, 1.00E−5 Molar
Protocol: as §1

SF-295 = experiment: NCI in vitro DTP human cell line screen, SF-295; assay type: cell-based; conditions: CNS Cancer, 1.00E−5 Molar
Protocol: as §1

M14 = experiment: NCI in vitro DTP human cell line screen, M14; assay type: cell-based; conditions: Melanoma, 1.00E−5 Molar
Protocol: as §1

U251 = experiment: NCI in vitro DTP human cell line screen, U251; assay type: cell-based; conditions: CNS Cancer, 1.00E−5 Molar
Protocol: as §1

OVCAR-4 = experiment: NCI in vitro DTP human cell line screen, OVCAR-4; assay type: cell-based; conditions: Ovarian Cancer, 1.00E−5 Molar
Protocol: as §1

HL-60(TB) = experiment: NCI in vitro DTP human cell line screen, HL-60(TB); assay type: cell-based; conditions: Leukemia, 1.00E−5 Molar
Protocol: as §1

60 cancer lines = experiment: NCI cell toxicity assay of 60 cancer lines, whole panel summary; assay type: cell-based, human; conditions: 1.00E−5 Molar; for Growth Percent, Mean: mean over all cell lines
Protocol: as §1

SK-MEL-5 = experiment: NCI in vitro DTP human cell line screen, SK-MEL-5; assay type: cell-based; conditions: Melanoma, 1.00E−5 Molar
Protocol: as §1

SNB-75 = experiment: NCI in vitro DTP human cell line screen, SNB-75; assay type: cell-based; conditions: CNS Cancer, 1.00E−5 Molar
Protocol: as §1

SW-620 = experiment: NCI in vitro DTP human cell line screen, SW-620; assay type: cell-based; conditions: Colon Cancer, 1.00E−5 Molar
Protocol: as §1

NCI-H460 = experiment: NCI in vitro DTP human cell line screen, NCI-H460; assay type: cell-based; conditions: Non-Small Cell Lung Cancer, 1.00E−5 Molar
Protocol: as §1

ACHN = experiment: NCI in vitro DTP human cell line screen, ACHN; assay type: cell-based; conditions: Renal Cancer, 1.00E−5 Molar
Protocol: as §1

KM12 = experiment: NCI in vitro DTP human cell line screen, KM12; assay type: cell-based; conditions: Colon Cancer, 1.00E−5 Molar
Protocol: as §1

NCI-H522 = experiment: NCI in vitro DTP human cell line screen, NCI-H522; assay type: cell-based; conditions: Non-Small Cell Lung Cancer, 1.00E−5 Molar
Protocol: as §1

HCT-15 = experiment: NCI in vitro DTP human cell line screen, HCT-15; assay type: cell-based; conditions: Colon Cancer, 1.00E−5 Molar
Protocol: as §1

SF-268 = experiment: NCI in vitro DTP human cell line screen, SF-268; assay type: cell-based; conditions: CNS Cancer, 1.00E−5 Molar
Protocol: as §1

COLO 205 = experiment: NCI in vitro DTP human cell line screen, COLO 205; assay type: cell-based; conditions: Colon Cancer, 1.00E−5 Molar
Protocol: as §1

HT29 = experiment: NCI in vitro DTP human cell line screen, HT29; assay type: cell-based; conditions: Colon Cancer, 1.00E−5 Molar
Protocol: as §1

SN12C = experiment: NCI in vitro DTP human cell line screen, SN12C; assay type: cell-based; conditions: Renal Cancer, 1.00E−5 Molar
Protocol: as §1

CAKI-1 = experiment: NCI in vitro DTP human cell line screen, CAKI-1; assay type: cell-based; conditions: Renal Cancer, 1.00E−5 Molar
Protocol: as §1

SNB-19 = experiment: NCI in vitro DTP human cell line screen, SNB-19; assay type: cell-based; conditions: CNS Cancer, 1.00E−5 Molar
Protocol: as §1

UO-31 = experiment: NCI in vitro DTP human cell line screen, UO-31; assay type: cell-based; conditions: Renal Cancer, 1.00E−5 Molar
Protocol: as §1

PC-3 = experiment: NCI in vitro DTP human cell line screen, PC-3; assay type: cell-based; conditions: Prostate Cancer, 1.00E−5 Molar
Protocol: as §1

EKVX = experiment: NCI in vitro DTP human cell line screen, EKVX; assay type: cell-based; conditions: Non-Small Cell Lung Cancer, 1.00E−5 Molar
Protocol: as §1

NCI/ADR-RES = experiment: NCI in vitro DTP human cell line screen, NCI/ADR-RES; assay type: cell-based; conditions: Ovarian Cancer, 1.00E−5 Molar
Protocol: as §1

MDA-MB-231/ATCC = experiment: NCI in vitro DTP human cell line screen, MDA-MB-231/ATCC; assay type: cell-based; conditions: Breast Cancer, 1.00E−5 Molar
Protocol: as §1

HOP-62 = experiment: NCI in vitro DTP human cell line screen, HOP-62; assay type: cell-based; conditions: Non-Small Cell Lung Cancer, 1.00E−5 Molar
Protocol: as §1

SK-MEL-2 = experiment: NCI in vitro DTP human cell line screen, SK-MEL-2; assay type: cell-based; conditions: Melanoma, 1.00E−5 Molar
Protocol: as §1

LOX IMVI = experiment: NCI in vitro DTP human cell line screen, LOX IMVI; assay type: cell-based; conditions: Melanoma, 1.00E−5 Molar
Protocol: as §1

RPMI-8226 = experiment: NCI in vitro DTP human cell line screen, RPMI-8226; assay type: cell-based; conditions: Leukemia, 1.00E−5 Molar
Protocol: as §1

786-0 = experiment: NCI in vitro DTP human cell line screen, 786-0; assay type: cell-based; conditions: Renal Cancer, 1.00E−5 Molar
Protocol: as §1

SK-MEL-28 = experiment: NCI in vitro DTP human cell line screen, SK-MEL-28; assay type: cell-based; conditions: Melanoma, 1.00E−5 Molar
Protocol: as §1

NCI-H226 = experiment: NCI in vitro DTP human cell line screen, NCI-H226; assay type: cell-based; conditions: Non-Small Cell Lung Cancer, 1.00E−5 Molar
Protocol: as §1

BT-549 = experiment: NCI in vitro DTP human cell line screen, BT-549; assay type: cell-based; conditions: Breast Cancer, 1.00E−5 Molar
Protocol: as §1

RXF 393 = experiment: NCI in vitro DTP human cell line screen, RXF 393; assay type: cell-based; conditions: Renal Cancer, 1.00E−5 Molar
Protocol: as §1

MDA-MB-435 = experiment: NCI in vitro DTP human cell line screen, MDA-MB-435; assay type: cell-based; conditions: Melanoma, 1.00E−5 Molar
Protocol: as §1

NCI-H322M = experiment: NCI in vitro DTP human cell line screen, NCI-H322M; assay type: cell-based; conditions: Non-Small Cell Lung Cancer, 1.00E−5 Molar
Protocol: as §1

NCI-H23 = experiment: NCI in vitro DTP human cell line screen, NCI-H23; assay type: cell-based; conditions: Non-Small Cell Lung Cancer, 1.00E−5 Molar
Protocol: as §1

MALME-3M = experiment: NCI in vitro DTP human cell line screen, MALME-3M; assay type: cell-based; conditions: Melanoma, 1.00E−5 Molar
Protocol: as §1

UACC-257 = experiment: NCI in vitro DTP human cell line screen, UACC-257; assay type: cell-based; conditions: Melanoma, 1.00E−5 Molar
Protocol: as §1

## CCCSc1ccc2c(=O)c3ccccc3sc2c1Cl [No. 3, 4-Chloro-3-(propylthio)-9H-thioxanthen-9-one]
OVCAR-5
  Growth Percent: 94.79%
CCRF-CEM
  Growth Percent: 85.29%
SK-OV-3
  Growth Percent: 104.52%
OVCAR-3
  Growth Percent: 90.35%
K562
  Growth Percent: 94.26%
HS 578-T
  Growth Percent: 94.80%
[1]
  viability: 88.9 ± 11.1%
UACC-62
  Growth Percent: 84.56%
MCF7
  Growth Percent: 97.13%
SF-295
  Growth Percent: 82.14%
M14
  Growth Percent: 102.38%
U251
  Growth Percent: 67.20%
OVCAR-4
  Growth Percent: 73.74%
HL-60(TB)
  Growth Percent: 118.59%
60 cancer lines
  Growth Percent, Mean: 91.31%
60 cancer lines; summary of Table 3
  cancer types with the better inhibition effect (in words): better inhibition effect on non-small cell lung cancer
SK-MEL-5
  Growth Percent: 98.20%
SNB-75
  Growth Percent: 100.85%
SW-620
  Growth Percent: 87.67%
NCI-H460
  Growth Percent: 59.83%
ACHN
  Growth Percent: 74.17%
KM12
  Growth Percent: 86.73%
NCI-H522
  Growth Percent: 94.37%
HCT-15
  Growth Percent: 98.58%
SF-268
  Growth Percent: 80.00%
COLO 205
  Growth Percent: 92.63%
HT29
  Growth Percent: 103.50%
SN12C
  Growth Percent: 85.72%
CAKI-1
  Growth Percent: 78.97%
SNB-19
  Growth Percent: 94.29%
UO-31
  Growth Percent: 99.45%
PC-3
  Growth Percent: 94.80%
EKVX
  Growth Percent: 96.42%
NCI/ADR-RES
  Growth Percent: 93.97%
MDA-MB-231/ATCC
  Growth Percent: 85.71%
HOP-62
  Growth Percent: 105.09%
SK-MEL-2
  Growth Percent: 114.59%
LOX IMVI
  Growth Percent: 64.69%
RPMI-8226
  Growth Percent: 104.20%
786-0
  Growth Percent: 101.51%
SK-MEL-28
  Growth Percent: 104.13%
NCI-H226
  Growth Percent: 94.52%
BT-549
  Growth Percent: 93.64%
RXF 393
  Growth Percent: 106.97%
MDA-MB-435
  Growth Percent: 80.72%
NCI-H322M
  Growth Percent: 73.70%
NCI-H23
  Growth Percent: 91.47%
MALME-3M
  Growth Percent: 92.96%
UACC-257
  Growth Percent: 98.85%

## COc1ccc(CSc2ccc3c(=O)c4ccccc4sc3c2Cl)cc1 [No. 27, 4-Chloro-3-(4-methoxybenzylthio)-9H-thioxanthen-9-one]
OVCAR-5
  Growth Percent: 103.70%
CCRF-CEM
  Growth Percent: 89.83%
SK-OV-3
  Growth Percent: 107.96%
OVCAR-3
  Growth Percent: 125.16%
K562
  Growth Percent: 114.13%
HS 578-T
  Growth Percent: 124.03%
[1]
  viability: 92.4%
UACC-62
  Growth Percent: 91.61%
MCF7
  Growth Percent: 101.77%
SF-295
  Growth Percent: 107.03%
M14
  Growth Percent: 99.76%
U251
  Growth Percent: 96.42%
OVCAR-4
  Growth Percent: 104.27%
HL-60(TB)
  Growth Percent: 121.13%
60 cancer lines
  Growth Percent, Mean: 103.13%
SK-MEL-5
  Growth Percent: 101.55%
SNB-75
  Growth Percent: 97.97%
SW-620
  Growth Percent: 106.98%
NCI-H460
  Growth Percent: 107.02%
ACHN
  Growth Percent: 104.71%
KM12
  Growth Percent: 108.05%
NCI-H522
  Growth Percent: 94.65%
HCT-15
  Growth Percent: 104.37%
SF-268
  Growth Percent: 101.32%
COLO 205
  Growth Percent: 99.12%
HT29
  Growth Percent: 108.69%
SN12C
  Growth Percent: 94.49%
CAKI-1
  Growth Percent: 102.18%
SNB-19
  Growth Percent: 97.16%
UO-31
  Growth Percent: 102.53%
PC-3
  Growth Percent: 93.39%
EKVX
  Growth Percent: 114.01%
NCI/ADR-RES
  Growth Percent: 106.73%
MDA-MB-231/ATCC
  Growth Percent: 96.93%
HOP-62
  Growth Percent: 110.61%
SK-MEL-2
  Growth Percent: 104.94%
LOX IMVI
  Growth Percent: 101.59%
RPMI-8226
  Growth Percent: 103.69%
786-0
  Growth Percent: 100.89%
SK-MEL-28
  Growth Percent: 118.75%
NCI-H226
  Growth Percent: 100.46%
BT-549
  Growth Percent: 93.21%
RXF 393
  Growth Percent: 117.83%
MDA-MB-435
  Growth Percent: 107.44%
NCI-H322M
  Growth Percent: 95.82%
NCI-H23
  Growth Percent: 99.92%
MALME-3M
  Growth Percent: 107.44%
UACC-257
  Growth Percent: 100.47%
